# Measured values: PubChem BioAssay (NCI)
# Where “and” joins values, the source holds several entries; their conditions need not be identical. Equal entries are not always repeated.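 Five compound concentrations were applied to cells in 96-well plates for 48 hours; endpoints were derived by simple linear interpolation of the resulting dose-response curve. The concentration for 50% growth inhibition is given as GI50. The concentration for full growth arrest is given as TGI.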
# Tests used:
# Assay in all cases: inhibition of tumour cell growth, NCI panel, 48 h
# SR leukemia = test system: SR leukemia
# NCI-H522 lung = test system: NCI-H522 lung
# SK-OV-3 ovarian = test system: SK-OV-3 ovarian
# SF-539 CNS = test system: SF-539 CNS
# DU-145 prostate = test system: DU-145 prostate
# SK-MEL-2 melanoma = test system: SK-MEL-2 melanoma
# HCT-15 colon = test system: HCT-15 colon
# 786-0 renal = test system: 786-0 renal
# BT-549 breast = test system: BT-549 breast
# CAKI-1 renal = test system: CAKI-1 renal
# PC-3 prostate = test system: PC-3 prostate
# KM12 colon = test system: KM12 colon
# OVCAR-8 ovarian = test system: OVCAR-8 ovarian
# M14 melanoma = test system: M14 melanoma
# HCC-2998 colon = test system: HCC-2998 colon
# NCI/ADR-RES ovarian = test system: NCI/ADR-RES ovarian
# TK-10 renal = test system: TK-10 renal
# HT29 colon = test system: HT29 colon
# SF-268 CNS = test system: SF-268 CNS
# A549 NSCLC = test system: A549 NSCLC
# NCI-H226 lung = test system: NCI-H226 lung
# SK-MEL-28 melanoma = test system: SK-MEL-28 melanoma
# SW-620 colon = test system: SW-620 colon
# OVCAR-3 ovarian = test system: OVCAR-3 ovarian
# SNB-75 CNS = test system: SNB-75 CNS
# IGROV1 ovarian = test system: IGROV1 ovarian
# HL-60(TB) leukemia = test system: HL-60(TB) leukemia
# NCI-H23 lung = test system: NCI-H23 lung
# HS 578T breast = test system: HS 578T breast
structure (smiles),measurement,setting,value
Cc1ccc(NC(=O)c2ccc(CN3CC[C@H](N(C)C)C3)c(C(F)(F)F)c2)cc1Nc1nccc(-c2cncnc2)n1,GI50,SR leukemia,2.79 µM and 1.99 µM
same,TGI,SR leukemia,> 24.4 µM and 5.04 µM
same,GI50,NCI-H522 lung,4.5 µM and > 10 µM
same,TGI,NCI-H522 lung,13.1 µM and > 10 µM
same,GI50,SK-OV-3 ovarian,16 µM and > 10 µM
same,TGI,SK-OV-3 ovarian,32.1 µM and > 10 µM
same,GI50,SF-539 CNS,4.5 µM and 6.26 µM
same,TGI,SF-539 CNS,9.34 µM and > 10 µM
same,GI50,DU-145 prostate,12 µM and > 10 µM
same,TGI,DU-145 prostate,29.6 µM and > 10 µM
same,GI50,SK-MEL-2 melanoma,2.64 µM and 2.5 µM
same,TGI,SK-MEL-2 melanoma,13.3 µM and > 10 µM
same,GI50,HCT-15 colon,4.47 µM and 5.13 µM
same,TGI,HCT-15 colon,23.5 µM and > 10 µM
same,GI50,786-0 renal,6.11 µM and 6.67 µM
same,TGI,786-0 renal,14.9 µM and > 10 µM
same,GI50,BT-549 breast,5.96 µM and > 10 µM
same,TGI,BT-549 breast,13.3 µM and > 10 µM
same,GI50,CAKI-1 renal,9.06 µM and > 10 µM
same,TGI,CAKI-1 renal,27.4 µM and > 10 µM
same,GI50,PC-3 prostate,13.4 µM and > 10 µM
same,TGI,PC-3 prostate,35 µM and > 10 µM
same,GI50,KM12 colon,6.65 µM and > 10 µM
same,TGI,KM12 colon,23.5 µM and > 10 µM
same,GI50,OVCAR-8 ovarian,13.8 µM and > 10 µM
same,TGI,OVCAR-8 ovarian,36.1 µM and > 10 µM
same,GI50,M14 melanoma,0.425 µM and 0.668 µM
same,TGI,M14 melanoma,4.9 µM and > 10 µM
same,GI50,HCC-2998 colon,10.8 µM and > 10 µM
same,TGI,HCC-2998 colon,28 µM and > 10 µM
same,GI50,NCI/ADR-RES ovarian,12.5 µM and > 10 µM
same,TGI,NCI/ADR-RES ovarian,45.1 µM and > 10 µM
same,GI50,TK-10 renal,15 µM and > 10 µM
same,TGI,TK-10 renal,28.4 µM and > 10 µM
same,GI50,HT29 colon,0.606 µM and 0.637 µM
same,TGI,HT29 colon,15.7 µM and > 10 µM
same,GI50,SF-268 CNS,10.4 µM and > 10 µM
same,TGI,SF-268 CNS,28.5 µM and > 10 µM
same,GI50,A549 NSCLC,11.3 µM and > 10 µM
same,TGI,A549 NSCLC,28.5 µM and > 10 µM
same,GI50,NCI-H226 lung,15.2 µM and > 10 µM
same,TGI,NCI-H226 lung,36.6 µM and > 10 µM
same,GI50,SK-MEL-28 melanoma,0.798 µM and 0.635 µM
same,TGI,SK-MEL-28 melanoma,5.53 µM and > 10 µM
same,GI50,SW-620 colon,6.15 µM and > 10 µM
same,TGI,SW-620 colon,22.1 µM and > 10 µM
same,GI50,OVCAR-3 ovarian,6.12 µM and 8.64 µM
same,TGI,OVCAR-3 ovarian,20.5 µM and > 10 µM
same,GI50,SNB-75 CNS,10.3 µM and > 10 µM
same,TGI,SNB-75 CNS,22.8 µM and > 10 µM
same,GI50,IGROV1 ovarian,7.21 µM and 5.14 µM
same,TGI,IGROV1 ovarian,24.8 µM and > 10 µM
same,GI50,HL-60(TB) leukemia,5.85 µM and 0.758 µM
same,TGI,HL-60(TB) leukemia,22.6 µM and > 10 µM
same,GI50,NCI-H23 lung,5.61 µM and 8.08 µM
same,TGI,NCI-H23 lung,26.5 µM and > 10 µM
same,GI50,HS 578T breast,7.62 µM and 2.23 µM
